Measured values taken from article PMC11551755, “Structure-based discovery of first inhibitors targeting the helicase activity of human PIF1” (Nucleic Acids Research, 2024).

Molecular target: T1, human UPF1 (hUPF1) helicase (Homo sapiens, UniProt Q92900)
T1 construct: Full-length human UPF1 helicase was expressed and purified as described previously; made in house
T1 sequence (Q92900 1-1129): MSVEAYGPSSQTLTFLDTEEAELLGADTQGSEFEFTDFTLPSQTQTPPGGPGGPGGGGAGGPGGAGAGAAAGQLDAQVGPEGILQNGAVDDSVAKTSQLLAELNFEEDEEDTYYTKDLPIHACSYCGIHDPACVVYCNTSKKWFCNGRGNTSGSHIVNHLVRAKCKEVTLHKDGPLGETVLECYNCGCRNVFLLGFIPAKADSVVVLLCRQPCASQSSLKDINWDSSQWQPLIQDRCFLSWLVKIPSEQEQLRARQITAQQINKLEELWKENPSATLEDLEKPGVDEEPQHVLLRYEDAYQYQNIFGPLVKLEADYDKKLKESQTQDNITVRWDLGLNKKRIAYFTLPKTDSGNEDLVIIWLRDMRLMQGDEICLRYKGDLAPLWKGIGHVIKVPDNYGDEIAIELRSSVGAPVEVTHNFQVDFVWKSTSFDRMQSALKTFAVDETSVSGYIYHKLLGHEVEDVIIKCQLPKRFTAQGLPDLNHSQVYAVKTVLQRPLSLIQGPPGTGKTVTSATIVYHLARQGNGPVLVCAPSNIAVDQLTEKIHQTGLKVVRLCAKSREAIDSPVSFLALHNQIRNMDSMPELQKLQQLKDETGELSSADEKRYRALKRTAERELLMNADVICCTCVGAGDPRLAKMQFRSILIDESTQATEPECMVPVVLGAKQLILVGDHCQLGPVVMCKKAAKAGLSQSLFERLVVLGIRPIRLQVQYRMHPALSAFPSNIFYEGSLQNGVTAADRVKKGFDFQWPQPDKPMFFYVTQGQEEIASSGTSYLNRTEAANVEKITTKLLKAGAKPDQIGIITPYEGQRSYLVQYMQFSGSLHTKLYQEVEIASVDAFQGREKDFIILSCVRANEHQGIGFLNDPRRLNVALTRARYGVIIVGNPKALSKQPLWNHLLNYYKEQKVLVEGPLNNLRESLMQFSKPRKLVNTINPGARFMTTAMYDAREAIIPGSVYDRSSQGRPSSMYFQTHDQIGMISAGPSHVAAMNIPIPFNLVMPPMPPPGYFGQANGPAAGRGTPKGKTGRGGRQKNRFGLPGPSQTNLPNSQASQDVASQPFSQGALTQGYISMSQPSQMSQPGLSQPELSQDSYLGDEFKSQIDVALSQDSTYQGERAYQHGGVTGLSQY
Assay: helicase assay after pre-incubation of SMI with hUPF1
Type: biochemical
Conditions: for IC50: 2 h pre-incubation at 22°C with 100 nM hUPF1, then 1:10 dilution into helicase assay, read-out: IC50 for dsDNA unwinding by hUPF1 following pre-incubation
Experimental: Full-length human UPF1 helicase was expressed and purified as described previously ([36]).
In parallel, IC50 values for inhibition of human UPF1 (hUPF1) helicase activity by the SMIs were also determined under the same conditions. UPF1-like SF1B helicases are the most closely related family of helicases to PIF1, with significant structural and mechanistic similarity ([52]).
Figure 6. SMI IC50 for dsDNA unwinding determined following pre-incubation. SMIs (0.0078–2 mM SMI) were incubated for 2 h at 22°C (100 nM FLhPIF1 or hUPF1) before dilution (1:10) in the standard helicase assay (0.1 nM DNA substrate). For 1D and 6, structures, electrophoresis of FLhPIF1 reaction product and graphs for IC50 value determination are shown. The graphed data include the activity of SMIs towards hUPF1 and IC50 values obtained are given. See Supplementary Figure S14 for the complete data set. TEXT PRINTED IN THE PICTURE: 1D: IC50 (μM): PIF1: 978 ± 221; IC50 (μM): UPF1: N.D. | 6: IC50 (μM): PIF1: 79.4 ± 16; IC50 (μM): UPF1: 1750 ± 426
Supplementary Figure 14. IC50 DNA unwinding determined following 2 hours pre-incubation. […] The assay procedure and reaction conditions for each helicase were identical (see methods, main manuscript). The figure complements main manuscript Figure 6. […] The reason for this is unclear.

SMILES | IC50 | fold difference in sensitivity, hUPF1 vs FLhPIF1 IC50 (2 h pre-incubation)
CC(=O)c1ccc(-c2csc(N)n2)cc1 [Compound 2] | 445 ± 132 µM | –
N#Cc1ccc(-c2csc(N)n2)cc1 [Compound 5] | 289 ± 127 µM | –
Nc1nc(-c2ccc(C(=O)c3ccccc3)cc2)cs1 [Compound 6] | 1750 ± 426 µM | ~22 fold
CC(=O)Nc1ccc(-c2csc(N)n2)cc1C1=CCNCC1 [Compound 11] | 576 ± 146 µM | –
